What was measured:
TLR7 = biological target: T1, TLR7 (Homo sapiens, UniProt Q9NYK1); test: TLR7 human PBMC cell-based assay (antagonist, GS-986 stimulated cytokine release); conditions: human PBMCs; TLR7 agonist GS-986 400 nM, 6 hours; cytokines (IL-6 and IFNα) in supernatant; read-out: TLR-7 EC50
T1 construct: Human peripheral blood mononuclear cells (PBMCs) consist of lymphocytes, monocytes and dendritic cells that express TLR7, TLR8 and TLR9; endogenous in cells; host or cells: cryopreserved human PBMCs from healthy donors
T1 sequence (Q9NYK1 27-1049): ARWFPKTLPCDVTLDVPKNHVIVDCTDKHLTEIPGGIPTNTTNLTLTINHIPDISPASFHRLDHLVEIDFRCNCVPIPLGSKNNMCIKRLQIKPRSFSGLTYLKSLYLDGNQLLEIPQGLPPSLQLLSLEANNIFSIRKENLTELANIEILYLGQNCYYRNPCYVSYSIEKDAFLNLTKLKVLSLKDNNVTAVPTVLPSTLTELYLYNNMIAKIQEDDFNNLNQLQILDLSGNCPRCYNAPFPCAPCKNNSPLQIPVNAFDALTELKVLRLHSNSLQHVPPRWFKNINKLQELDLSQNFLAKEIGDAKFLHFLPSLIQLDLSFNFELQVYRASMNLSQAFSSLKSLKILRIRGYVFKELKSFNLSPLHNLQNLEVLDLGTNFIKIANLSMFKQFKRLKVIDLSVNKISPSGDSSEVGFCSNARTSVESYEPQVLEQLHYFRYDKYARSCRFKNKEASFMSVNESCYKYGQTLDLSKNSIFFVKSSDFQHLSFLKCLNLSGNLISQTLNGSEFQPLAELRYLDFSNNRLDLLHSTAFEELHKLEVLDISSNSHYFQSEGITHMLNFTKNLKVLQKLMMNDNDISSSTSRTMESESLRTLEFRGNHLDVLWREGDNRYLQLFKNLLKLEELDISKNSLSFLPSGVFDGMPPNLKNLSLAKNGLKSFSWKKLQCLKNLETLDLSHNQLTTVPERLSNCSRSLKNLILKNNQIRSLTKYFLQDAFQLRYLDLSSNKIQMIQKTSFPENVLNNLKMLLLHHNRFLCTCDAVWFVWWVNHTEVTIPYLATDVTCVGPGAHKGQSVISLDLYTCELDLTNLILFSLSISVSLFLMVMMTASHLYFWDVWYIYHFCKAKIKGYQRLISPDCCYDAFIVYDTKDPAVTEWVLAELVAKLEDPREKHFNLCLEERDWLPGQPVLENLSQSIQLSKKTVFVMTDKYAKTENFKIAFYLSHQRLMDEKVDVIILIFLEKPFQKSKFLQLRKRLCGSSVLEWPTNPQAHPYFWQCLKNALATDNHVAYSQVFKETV
Excerpt: (§1) Human peripheral blood mononuclear cells (PBMCs) consist of lymphocytes, monocytes and dendritic cells that express TLR7, TLR8 and TLR9. These cells respond to TLR7, TLR8 and TLR9 ligand stimulation and produce cytokines and chemokines in vitro and in vivo. Human PBMCs are therefore suitable to be used in a cell-based assay to assess the in vitro potency of a TLR 7, 8, and/or 9 antagonist. The result is expected to be more translatable to the pharmacodynamics response in vivo than cell line-based assays.
Cryopreserved human PBMCs from healthy donors were thawed and resuspended in RPMI-1640 media with L-glutamine (Corning) supplemented with 10% Fetal Bovine Serum (Hyclone) and 1× Penicillin-Streptomycin (Corning). After counting, the cell density was adjusted to 2 million cells/ml and incubated for 1 hour at 37° C., 5% CO2 for recovery. Following the recovery, the cells were plated by adding 50 μl per well (100,000 cells) to 384-well cell culture plates (Greiner) containing 250 nl of test antagonists in 100% DMSO per well, in a 10 points dose response in quadruplicates. PBMCs were incubated in the presence of test antagonists for one hour at 37° C., 5% CO2 before being stimulated with a TLR7 or TLR9agonist. GS-986 (Gilead Sciences) was used as the TLR7 agonist at a final concentration of 400 nM. ODN-2216 (InvivoGen) was used as the TLR9 agonist at a final concentration of 3 μM. PBMCs were incubated in the presence of the test antagonist and the TLR7 (or TLR9) agonist for an additional 6 hours at 37° C., 5% CO2. At the end of the incubation, the cell culture plates were centrifuged at 500 g for 5 min, and the cell culture supernatant was collected. The level of cytokines (IL-6 and IFNα) in the supernatant was measured by electrochemiluminescence immunoassays (Mesoscale Discovery) following manufacturer's recommended protocols. The level of cytokine measured was plotted against the test antagonist concentration and fitted to a sigmoidal function to determine the EC50, which are shown below in Table 11.

TLR8 = biological target: T2, TLR8 (Homo sapiens, UniProt Q9NR97); test: TLR8 human PBMC cell-based assay (antagonist, Compound A stimulated cytokine release); conditions: human PBMCs; TLR8 agonist Compound A 800 nM, 6 hours; cytokines (TNFa and IL 12p40) in supernatant; read-out: TLR-8 EC50
T2 construct: Human peripheral blood mononuclear cells (PBMCs) consist of lymphocytes, monocytes and dendritic cells that express TLR7, TLR8 and TLR9; endogenous in cells; host or cells: cryopreserved human PBMCs from healthy donors
T2 sequence (Q9NR97 27-1041): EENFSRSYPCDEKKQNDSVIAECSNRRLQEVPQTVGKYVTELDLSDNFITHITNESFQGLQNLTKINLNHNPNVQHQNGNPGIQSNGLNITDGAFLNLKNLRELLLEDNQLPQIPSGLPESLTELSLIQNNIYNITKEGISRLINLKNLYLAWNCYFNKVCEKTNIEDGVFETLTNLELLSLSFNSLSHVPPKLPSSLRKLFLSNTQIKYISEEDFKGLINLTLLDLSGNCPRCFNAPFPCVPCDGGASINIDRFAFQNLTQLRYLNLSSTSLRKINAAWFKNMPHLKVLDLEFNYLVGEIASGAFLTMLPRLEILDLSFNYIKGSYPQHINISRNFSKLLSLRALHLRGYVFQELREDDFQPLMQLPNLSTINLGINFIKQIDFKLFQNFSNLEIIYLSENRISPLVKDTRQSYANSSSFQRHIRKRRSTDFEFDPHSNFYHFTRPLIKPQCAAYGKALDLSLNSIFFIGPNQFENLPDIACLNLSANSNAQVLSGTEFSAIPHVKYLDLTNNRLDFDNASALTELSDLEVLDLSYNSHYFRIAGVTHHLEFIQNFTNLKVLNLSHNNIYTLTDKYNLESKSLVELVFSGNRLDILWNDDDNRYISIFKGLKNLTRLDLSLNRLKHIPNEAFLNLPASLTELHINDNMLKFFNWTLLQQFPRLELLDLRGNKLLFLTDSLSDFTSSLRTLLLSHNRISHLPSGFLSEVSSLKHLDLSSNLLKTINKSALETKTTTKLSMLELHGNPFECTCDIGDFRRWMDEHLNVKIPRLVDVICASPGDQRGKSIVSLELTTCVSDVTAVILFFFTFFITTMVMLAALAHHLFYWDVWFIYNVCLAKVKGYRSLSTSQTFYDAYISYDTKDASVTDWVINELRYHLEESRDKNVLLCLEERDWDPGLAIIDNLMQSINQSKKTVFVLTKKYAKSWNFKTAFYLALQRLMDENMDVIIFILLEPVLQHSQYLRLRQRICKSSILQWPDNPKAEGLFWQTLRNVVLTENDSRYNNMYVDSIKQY
Excerpt: as §1
Cryopreserved human PBMCs from healthy donors were thawed and resuspended in RPMI-1640 media with L-glutamine (Corning) supplemented with 10% Fetal Bovine Serum (Hyclone) and 1X Penicillin-Streptomycin (Corning). After counting, the cell density was adjusted to 2 million cells/ml and incubated for 1 hour at 37° C., 5% CO2 for recovery. Following the recovery, the cells were plated by adding 50 μl per well (100,000 cells) to 384-well cell culture plates (Greiner) containing 250 nl of test antagonists in 100% DMSO per well, in a 10 points dose response in quadruplicates. PBMCs were incubated in the presence of antagonists for one hour at 37° C., 5% CO2 before being stimulated with TLR8 agonist. Compound A (Gilead Sciences, U.S. Pat. No. 10,285,990) was used as the TLR8 agonist at a final concentration of 800 nM. PBMCs were incubated in the presence of antagonist and the TLR8 agonist for an additional 6 hours at 37° C., 5% CO2. At the end of the incubation, the cell culture plates were centrifuged at 500 g for 5 min, and the cell culture supernatant was collected. The level of cytokines (TNFa and IL 12p40) in the supernatant was measured by electrochemiluminescence immunoassays (Mesoscale Discovery) following manufacturer's recommended protocols. The level of cytokine measured was plotted against the antagonist concentration and fitted to a sigmoidal function to determine the EC50, which are shown below in Table 11.

Row | EC50 (TLR7) | EC50 (TLR8) | SMILES
1 | 43.5 nM | 15.1 nM | Cc1cc(-c2[nH]c3cc(C(=O)N4CC5CCC(C4)N5)sc3c2C(C)C)cc(C)n1 [Example 16]
2 | 49.9 nM | 32 nM | Cc1cc(-c2[nH]c3cc(C(=O)N4C5CCC4CNC5)sc3c2C(C)C)cc(C)n1 [Example 17]
3 | 200 nM | 67.2 nM | Cc1cc(-c2[nH]c3cc(C(=O)N4CC5CC(C4)N5)sc3c2C(C)C)cc(C)n1 [Example 18]
4 | 77.7 nM | 53.7 nM | Cc1cc(-c2[nH]c3cc(C(=O)N4C5CNCC4C5)sc3c2C(C)C)cc(C)n1 [Example 19]
5 | 223 nM | 26.4 nM | Cc1cc(-c2[nH]c3cc(C(=O)N4C[C@@H]5C[C@H]4CN5)sc3c2C(C)C)cc(C)n1 [Example 20]
6 | 70.6 nM | 66.2 nM | Cc1cc(-c2[nH]c3cc(C(=O)N4C[C@H]5C[C@@H]4CN5)sc3c2C(C)C)cc(C)n1 [Example 21]
7 | 50.1 nM | 94 nM | Cc1cc(-c2[nH]c3cc(C(=O)N(C)[C@@H]4CCNC4)sc3c2C(C)C)cc(C)n1 [Example 22]
8 | 19.9 nM | 68 nM | Cc1cc(-c2[nH]c3cc(C(=O)N(C)[C@H]4CCNC4)sc3c2C(C)C)cc(C)n1 [Example 23]
9 | 504 nM | 408 nM | Cc1cc(-c2[nH]c3cc(C(=O)N4CC5(CNC5)C4)sc3c2C(C)C)cc(C)n1 [Example 24]
10 | 64.4 nM | 136 nM | CO[C@@H]1CCN(C(=O)c2cc3[nH]c(-c4cc(C)nc(C)c4)c(C(C)C)c3s2)C[C@@H]1N [Example 25]
11 | 72 nM | 123 nM | Cc1cc(-c2[nH]c3cc(C(=O)N4CC[C@@H](F)[C@@H](N)C4)sc3c2C(C)C)cc(C)n1 [Example 27]
12 | 26 nM | 81 nM | Cc1cc(-c2[nH]c3cc(C(=O)N4CCCC5NCCC54)sc3c2C(C)C)cc(C)n1 (centres unmarked) [Example 28]
13 | 60 nM | 92 nM | Cc1cc(-c2[nH]c3cc(C(=O)N(C)[C@H]4CCCNC4)sc3c2C(C)C)cc(C)n1 [Example 29]
14 | 35.9 nM | 30 nM | Cc1cc(-c2[nH]c3cc(C(=O)N4CCC5CCNC5C4)sc3c2C(C)C)cc(C)n1 (centres unmarked) [Example 30]
15 | 40.6 nM | 68 nM | Cc1cc(-c2[nH]c3cc(C(=O)N4CCC5CC5(N)C4)sc3c2C(C)C)cc(C)n1 (centres unmarked) [Example 31]
16 | 2.1 nM | 1.2 nM | Cc1c(-c2[nH]c3cc(C(=O)N4CCNCC4)sc3c2C(C)C)cn2ncnc2c1C [Example 32]
17 | 9.7 nM | 3 nM | Cc1cc(-c2[nH]c3cc(C(=O)N4CCNCC4)sc3c2C(C)C)cn(C)c1=O [Example 34]
18 | 29.8 nM | 37 nM | Cc1cc(-c2[nH]c3cc(C(=O)N(C)[C@H]4CCNC4)sc3c2C(C)C)cn(C)c1=O [Example 36]
19 | 3.5 nM | 3.4 nM | Cc1cc(-c2[nH]c3cc(C(=O)N4CCNCC4)sc3c2C(C)C)cn2ncnc12 [Example 38, [6-isopropyl-5-(8-methyl-[1,2,4]triazolo[1,5-a]pyridin-6-yl)-4H-thieno[3,2-b]pyrrol-2-yl]-piperazin-1-yl-methanone]
20 | 0.6 nM | 11.2 nM | Cc1cc(-c2[nH]c3cc(C(=O)N(C)[C@H]4CCNC4)sc3c2C(C)C)cn2ncnc12 [Example 39]
21 | 17.8 nM | 115 nM | Cc1cc(-c2[nH]c3cc(C(=O)N4CCNC(=O)C4)sc3c2C(C)C)cn2ncnc12 [Example 40, 4-[6-isopropyl-5-(8-methyl-[1,2,4]triazolo[1,5-a]pyridin-6-yl)-4H-thieno[3,2-b]pyrrole-2-carbonyl]piperazin-2-one]
22 | 6.4 nM | 2.6 nM | Cc1cc(-c2[nH]c3cc(C(=O)N4CCN(C)CC4)sc3c2C(C)C)cn2ncnc12 [Example 43]
23 | 46.1 nM | 41.2 nM | Cc1cc(-c2[nH]c3cc(C(=O)N4CCC(O)CC4)sc3c2C(C)C)cn2ncnc12 [Example 44]
24 | 355 nM | 31.7 nM | Cc1cc(-c2[nH]c3cc(C(=O)N4CCN(CCO)CC4)sc3c2C(C)C)cc(C)n1 [Example 45]
25 | 0.1 nM | 3.8 nM | Cc1cc(-c2[nH]c3cc(-c4nc(C5CCNCC5)no4)sc3c2C(C)C)cn2ncnc12 [Example 46, 5-(6-isopropyl-5-(8-methyl-[1,2,4]triazolo[1,5-a]pyridin-6-yl)-4H-thieno[3,2-b]pyrrol-2-yl)-3-(piperidin-4-yl)-1,2,4-oxadiazole]

From patent US20240217990A1 (Gilead Sciences, Inc., priority 2021, published 2024)
